A short description of this series: Fuel solubility: miscibility of blends with commercial diesel. The class given is physicochemical. The text has this: Fuel solubility is a primary concern for diesel fuel applications. Not all highly polar oxygenates have good solubility in the current commercial diesel fuels.

In the case of `CCOCc1ccc(C=O)o1` [EMF, 5-(ethoxymethyl)furfural], the “Miscibility of blend with commercial diesel” value runs as follows: (5 vol % blend with commercial diesel) “completely miscible”; (25 vol % blend with commercial diesel) “phase separation occurs”; (40 vol % blend with commercial diesel) “phase separation occurs”.

The record behind these values is patent US20100058650A1, “HYDROXYMETHYLFURFURAL ETHERS FROM SUGARS OR HMF AND MIXED ALCOHOLS” (FURANIX TECHNOLOGIES B.V., priority 2007, published 2010).
